Holding throughout (assay type): cell-based, human
For series [1], the system named is NZM40 (NRAS Q16H) melanoma cells. The series is described as follows: FACS uptake of BODIPY FL conjugates, 200 nM, 5 min (Example 2). The method, then: FIG. 2. Conjugate compounds coupled to BODIPY FL were tested for uptake using 200 nM each conjugate and 5 minute incubation with melanoma cell line NZM11 (BRAF V600E mutant metastatic melanoma), melanoma cell line NZM40 (NRAS Q16H mutant metastatic melanoma) and melanoma cell line NZM9 (BRAF and NRAS wildtype metastatic melanoma). Mean fluorescent intensities (MFI). 2,000 cells (NZM11), 1,000 cells (NZM40) and 500-1,000 cells (NZM9). Cells were sorted by FACS. Bars represent mean±SD. Results were from a single experiment done in triplicate.
NZM40 is an adherent cell line which was originally derived from a metastatic melanoma from a patient, in 2004. This human metastatic melanoma is identified with code CBA-1381 from Cell bank Australia. […] Ras is a superfamily of proteins implicated in cell growth, survival and differentiation. NRAS (neuroblastoma rat sarcoma) was the first oncogene recognized in melanoma and mutations in NRAS account for 20% of all melanomas. NRAS mutations primarily occur at position 61 and involve amino acid change from glutamine (Q) to arginine (R), lysine (K), leucine (L) or histidine (H). These mutations block NRAS into a GTP-bound state damaging its GTPase activity (FIG. 1). Patients are usually older (>55 years) with previous UV exposure. See Garcia-Alverez et al., 2021.
For screening, NZM11, NZM40 and NZM9 cells were suspended at […] dispensed into 96 well plates and left to settle for 48 hours. Then, 10 μL of 10 mM stock solutions in DMSO for the conjugates were diluted with HBSS to afford 400 nM solution. Next, 400 nM compounds and DMSO solutions were diluted 1:1 with MEMα media to afford 200 nM solutions. After 48 hours the media was removed from the 96 well plates and 200 μL of 200 nM conjugates solutions dispensed to each well (in triplicate) and incubated for 5 minutes at 37 °C. After 5 minutes, the media was removed and cells washed with PBS. Then, 100 μL of TrypLE trypsin (ThermoFisher Scientific) were added to each well and incubated for 5 minutes at 37 °C after which, 100 μL of MEMα media were added and samples were sorted through FACS biosort. The FACS results output were represented as the mean of the fluorescence intensities (in arbitrary units) measured for cells sorted in every sample.

The subject of a further series is Jurkat cells. Briefly: FACS uptake of BODIPY FL conjugates in Jurkat cells (Example 3). The settings on record: 200 nM. The method, then: FIG. 3B: Conjugate compounds coupled to BODIPY FL were tested for uptake using 200 nM each conjugate and 5 minute incubation with immortalized T lymphocyte cell line, Jurkat cells. Mean fluorescent intensities (MFI). 1,000 cells sorted by FACS. Bars represent mean±SD. Results represent a single experiment done in duplicate.
Materials and methods: Jurkat cells have been previously shown to be defective in the expression of two lipid phosphatases, PTEN (phosphatase and tensin homologue) and SHIP (SH2-domain-containing inositol polyphosphate 5′ phosphatase). The biological implications of SHIP deficiency in T cells remain under evaluation, but the loss of PTEN leads to activation of the phosphatidylinositol 3-kinase (PI3K)-signalling pathway. See Abraham and Weiss, 2004. This activation of PI3K protein is also on NZM40 melanoma cell line, and represents a key mutation for its sustained proliferation. See Silva et al., 2017. For these experiments, Jurkat cells were diluted on RPMI media (supplemented with 10% FBS+1% penicillin-streptomycin) to afford 400 cells/μL. 2 μL of 100 μM stock solutions in DMSO from 138 and pantothenic acid/pantothenic acid derivatives coupled to BODIPY were diluted with 998 μL of RPMI media (supplemented with 10% FBS+1% penicillin-streptomycin) to afford 200 nM solution. 100,000 cells were dispensed to Eppendorf tubes, centrifuged for 1.5 min at 5000 rcf and the supernatant was removed. The cells then were incubated with 500 μL of solutions at 200 nM for 4.5 min and 37 °C. After the incubation time, cells were centrifuged for 1.5 minutes at 5000 rcf. Supernatant was removed and cell pellet re-suspended in 200 μL fresh RPMI media, transferred to 96 well-plate and run on FACS machine, approximately 1,000 cells analysed.

The test system of series [2] is NZM11 (BRAF V600E) melanoma cells. The series is described as follows: Time course of uptake by FACS (Example 5). The note with it: 200 nM; for uptake / intensities, in words: NZM11, time course. The protocol: FIG. 5A: Time course of uptake for 124, 125, 131, 132 conjugate compounds. Tests were performed using 200 nM each conjugate and 5, 30, or 60 minute incubation with melanoma cell line NZM11 (BRAF V600E mutant metastatic melanoma). Mean fluorescent intensities (MFI), n=300 mean±SD. The cells were sorted by FACS.
FIG. 5B: Time course of uptake for 124 and 3-azido BODIPY FL. Tests were performed using 200 nM each compound and 1 or 3 hour incubation with melanoma cell line NZM11 (BRAF V600E mutant metastatic melanoma). Mean fluorescent intensities (MFI). n=2000-3000 mean±SD. The cells were sorted by FACS.
Materials and methods: NZM11 cells were suspended at […] dispensed into 96 well plates and left to settle for 48 hours. 10 μL of 10 mM stock solutions in DMSO from the conjugates coupled to BODIPY were diluted with HBSS to afford 400 nM solution. Then, 400 nM compounds and DMSO solutions were diluted 1:1 with MEMα media to afford 200 nM solutions. After 48 hours the media was removed from the 96 well plates and 200 μL of 200 nM conjugates solutions dispensed to each well (in duplicate) and incubated for 5 minutes, 30 minutes and 60 minutes at 37 °C (for the first test) or 60 minutes and 3 hours (for the second test). After indicated incubation time, the media was removed and cells washed with PBS. 100 μL of TrypLE trypsin (ThermoFisher Scientific) were added to each well and incubated for 6.5 minutes at 37 °C after which, 100 μL of MEMα media were added and samples were sorted through FACS biosort. FACS results output represented the mean of the fluorescence intensities (in arbitrary units) measured for cells sorted in every sample. Uptake rate was calculated by the equation: Uptake rate=(MFI2−MFI1)/(T2−T1)
whereby: MFI=mean fluorescent intensities; T=time (at which time the sample was taken); Uptake rate units: fluorescence intensities units per minute.
Background: A flow cytometer gives signals particle by particle.

“Also recorded” adds a separate entry of the source.

Regarding `CC1=CC(C)=[N+]2C1=Cc1ccc(CCCn3cc(CCNC(=O)/C=C/NC(=O)[C@H](O)C(C)(C)CO)nn3)n1[B-]2(F)F` [Compound 124], in series [1], the “higher fluorescence intensities compared to enantiomer 126” value was 13 times and the “uptake (fluorescence intensities)” value is reported as “highest intensities; also recorded: best targeting activity”. The uptake / targeting result in the series on Jurkat cells is recorded as “highest uptake”. The “intensities compared to 125 and 127” value in the series with Jurkat cells (vs 125 and 127) is “two times higher”. Also, in series [2] (NZM11), the “lower intensities at 3 hour than 60 minute incubation” value stood at 4%, the “time after which uptake presents saturation” value was found to be 60 min and the “time at which highest intensities were reached” value was determined as 60 min. Further, the “uptake / intensities, in words” value in series [2] is “outstanding uptake; also recorded: rapid at the first minutes of incubation”. The compound also registered an uptake rate in series [2] (after five minutes) of 45 units per minute. Besides, the uptake rate in series [2] (at 30 minutes) turned out to be 23 units per minute. Further, in series [2] (at 60 minutes), the uptake rate is recorded as 1 units per minute.

As to `CC1=CC(C)=[N+]2C1=Cc1ccc(CCCn3cc(CCNC(=O)/C=C/NC(=O)[C@@H]4OC(C)(C)OCC4(C)C)nn3)n1[B-]2(F)F` [Compound 125, (R,E)-N-((((3-[4,4-difluoro-5,7-dimethyl-4-bora-3a,4a-diaza-s-indacene-3-yl]propyl)-1H-1,2,3-triazol-4-yl)eth-ylamino)-3-oxoprop-1-enyl)-2,2,5,5-tetramethyl-1,3-dioxane-4-carboxamide], the “uptake (fluorescence intensities)” value in series [1] is listed as “selective uptake; also recorded: significant uptake”. In addition, the uptake / targeting result in the series with Jurkat cells is on record as “showed targeting”. In addition, in series [2] (NZM11), the “time at which highest intensities were reached” value is 60 min and the “times lower uptake rate, as compared to 124” value is listed as 7 times.

Consider `CC1=CC(C)=[N+]2C1=Cc1ccc(CCCn3cc(CCNC(=O)/C=C\NC(=O)[C@H]4OC(C)(C)OCC4(C)C)nn3)n1[B-]2(F)F` [Compound 131, (Z)—N-((((3-[4,4-Difluoro-5,7-dimethyl-4-bora-3a,4a-diaza-s-indacene-3-yl]propyl)-1H-1,2,3-triazol-4-yl)ethylamino)-3-oxoprop-1-enyl)-2,2,5,5-tetramethyl-1,3-dioxane-4-carboxamide], for which the “uptake (fluorescence intensities)” value in series [1] is given as “showed selectivity”. Moreover, the uptake / targeting result with Jurkat cells is reported as “showed targeting”. Moreover, the “uptake / intensities, in words” value in series [2] is reported as “non-significant intensities”.
